Earlier results, collected in PMC9164236 (ACS Organic & Inorganic Au, 2022).

CC[C@@H](C(=O)[C@@H](C)[C@@H](O)[C@H](C)[C@@H]1O[C@@H]([C@@H](CC)C(=O)O)CC[C@@H]1C)[C@H]1O[C@]2(C=C[C@@H](O)[C@]3(CC[C@@](C)([C@H]4CC[C@](O)(CC)[C@H](C)O4)O3)O2)[C@H](C)C[C@@H]1C [Sal, Salinomycin]
Stability in the presence of iron(III) chloride over time: degrade | Reduction of the proportion of CSCs relative to paclitaxel (breast CSCs): > 100 fold
